# Experiments:
# MAPKAPK5 = target: T1, MAPKAPK5 (Homo sapiens, UniProt Q8IW41); assay: MAPKAP-K5 assay (FlashPlate, 33P-ATP); type: biochemical; settings: 0.6 μM ATP, 30 minutes at room temperature
# T1 construct: 1 mU MAPKAP-K5
# T1 sequence (Q8IW41 1-473): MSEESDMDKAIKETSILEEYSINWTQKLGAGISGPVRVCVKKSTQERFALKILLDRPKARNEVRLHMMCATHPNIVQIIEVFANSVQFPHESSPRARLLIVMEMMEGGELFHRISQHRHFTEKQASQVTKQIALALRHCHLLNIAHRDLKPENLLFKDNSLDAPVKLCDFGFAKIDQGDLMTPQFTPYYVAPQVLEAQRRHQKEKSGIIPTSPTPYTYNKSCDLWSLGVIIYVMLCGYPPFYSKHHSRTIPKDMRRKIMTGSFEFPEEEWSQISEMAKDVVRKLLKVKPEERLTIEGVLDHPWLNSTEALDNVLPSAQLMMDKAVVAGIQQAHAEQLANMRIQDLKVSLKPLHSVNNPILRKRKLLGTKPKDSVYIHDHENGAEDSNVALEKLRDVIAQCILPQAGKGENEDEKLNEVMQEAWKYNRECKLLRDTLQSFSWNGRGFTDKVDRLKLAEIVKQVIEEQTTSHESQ
# Procedure: 3 μM MAPKAP-K5 peptide substrate
# MMP1 expression by SFs = assay: 'MMP assay': MMP1 expression by 'complex trigger' activated synovial fibroblasts (MMP1 ELISA); type: cell-based, human; settings: Homo sapiens, Fibroblast, RASFs, 48 hrs
# Procedure: A 384-well format ELISA for measurement of MMP1 is developed. Various primary antibodies are tested, as well as various ELISA protocols. The following protocol is developed and validated to measure MMP1 levels in SF supernatant in 384 well plates: white Lumitrac 600 384 well plates (Greiner) are coated with 2 μg/mL anti-MMP1 antibody MAB1346 (Chemicon). The antibody is diluted in buffer 40 (1.21 g Tris base (Sigma), 0.58 g NaCl (Calbiochem) and 5 ml 10% NaN3 (Sigma) in 1 L milliQ water and adjusted to pH 8.5). After overnight incubation at 4° C., plates are washed with PBS (80 g NaCl, 2 g KCl (Sigma), 11.5 g Na2HPO4.7H2O and 2 g KH2PO4 in 10 L milliQ; pH 7.4) and blocked with 100 μL/well Casein buffer (2% Casein (VWR International) in PBS). Next day, casein buffer is removed from ELISA plates and replaced by 50 μL/well EC buffer (4 g casein, 2.13 g Na2HPO4 (Sigma), 2 g bovine albumin (Sigma), 0.69 g NaH2PO4.H2O (Sigma), 0.5 g CHAPS (Roche), 23.3 g NaCl, 4 mL 0.5 M EDTA pH 8 (Invitrogen), 5 mL 10% NaN3 in 1 L milliQ and adjusted to pH 7.0). 0.25 mM DTT (Sigma) is added to the thawed samples plates. After removal of the EC buffer, 20 μL of sample is transferred to the ELISA plates. After overnight incubation at 4° C. plates are washed twice with PBS and once with PBST (PBS with 0.05% Tween-20 (Sigma)) and incubated with 35 μL/well biotinylated anti-MMP1 antibody solution (R&D). This secondary antibody is diluted in buffer C (0.82 g NaH2PO4.H2O, 4.82 g Na2HPO4, 46.6 g NaCl, 20 g bovine albumin and 4 mL 0.5M EDTA pH 8 in 2 L milliQ and adjusted to pH 7.0) at a concentration of 5 μg/mL. After 2 h of incubation at RT, plates are washed as described above and incubated with 50 μL/well streptavidin-HRP conjugate (Biosource). Streptavidin-HRP conjugate is diluted in buffer C at a concentration of 0.25 μg/mL. After 45 min, plates are washed as described above and incubated for 5 min with 50 μL/well BM Chem ELISA Substrate (Roche). Readout is performed on the Luminoscan Ascent Luminometer (Labsystems) with an integration time of 200 msec or with an Envision reader (Perkin Elmer).
# The increase of MMP1 expression by SFs upon treatment with cytokines relevant in the field of RA (TNF-α, IL1β and OSM) or a combination thereof is shown in FIG. 2 as white bars. For this experiment, SFs are seeded in 96 well plates, 3,000 cells/well. 24 h later, the medium is changed to M199 medium supplemented with 1% FBS. One day after the medium change, cytokines or combinations thereof are added to the cultures, each cytokine being added to a final concentration of 25 ng/mL. 72 h after cytokine addition, the supernatant is collected and processed in the MMP1 ELISA as described in the protocol given above. In parallel with this experiment, SFs are triggered, using the same protocol, with the supernatant of THP1 cells (2-fold diluted in M199+1% FBS) treated with the same cytokines or combinations of cytokines for 48 h in M199 medium+1% FBS. The induction of the MMP1 expression by SFs triggered with the supernatants of TNF-α-treated THP1 cells is stronger (>4.5 fold induction) as compared to the SFs triggered with recombinant TNF-α alone (3-fold induction) and almost equals the 5-fold induction obtained by a mixture of 3 purified cytokines (TNF-α, IL1βb, OSM). […] As the role of TNF-α in the RA pathogenesis is validated (TNF-α-blockers such as Infliximab and Etanercept show some efficacy in the treatment of RA patients) and the THP-1 cells are representative for monocytes/macrophages present in the joint of RA patients, the TNF-α-based trigger mixture prepared by contacting THP-1 cells with TNF-α will contain factors present in the joints of RA patients and subsequently is relevant to RA. This TNF-α-based complex trigger, further referred to as the ‘complex trigger’, will further be used as basis for the ‘MMP assay’.
# Dexamethasone is shown to dose-dependently reduce amounts of MMP1 produced by complex trigger activated SFs. […]
compound,measurement,setting,value
"NC(=O)CN1CCC(c2ccc(Nc3ncc(-c4ccc5c(c4)CNC5=O)n4ccnc34)cc2)CC1 [Compound 226, 2-(4-{4-[5-(1-Oxo-2,3-dihydro-1H-isoindol-5-yl)-imidazo[1,2-a]pyrazin-8-ylamino]-phenyl}piperidin-1-yl)acetamide]",IC50,MAPKAPK5,101 to 500 nM
same,EC50,MMP1 expression by SFs,> 1000 nM
CCN(CC)CCNC(=O)c1ccc(Nc2ncc(-c3cc[nH]c(=O)c3)n3ccnc23)cc1 [Compound 99],IC50,MAPKAPK5,101 to 500 nM
same,EC50,MMP1 expression by SFs,> 1000 nM
COC(=O)c1cccc(Nc2ncc(-c3cn[nH]c3)n3ccnc23)c1 [Compound 20],IC50,MAPKAPK5,> 1000 nM
same,EC50,MMP1 expression by SFs,> 1000 nM
"CC(C)N1CCC(c2ccc(Nc3ncc(-c4ccc5c(c4)CNC5=O)n4ccnc34)cc2)CC1 [Compound 206, 5-{8-[4-(1-Isopropylpiperidin-4-yl)phenylamino]-imidazo[1,2-a]pyrazin-5-yl}-2,3-dihydroisoindol-1-one]",IC50,MAPKAPK5,1 to 100 nM
same,EC50,MMP1 expression by SFs,> 1000 nM
CCN(CC)CCNC(=O)c1ccc(Nc2ncc(-c3ccoc3)n3ccnc23)cc1 [Compound 74],IC50,MAPKAPK5,> 1000 nM
same,EC50,MMP1 expression by SFs,> 1000 nM
CCN(CC)CCNC(=O)c1ccc(Nc2ncc(-c3ccc(O)cc3C(F)(F)F)n3ccnc23)cc1 [Compound 75],IC50,MAPKAPK5,> 1000 nM
same,EC50,MMP1 expression by SFs,> 1000 nM
"O=C1NCc2oc(-c3cnc(Nc4ccc(N5CCOCC5)cc4)c4nccn34)cc21 [Compound 217, 2-[8-(4-Morpholin-4-yl-phenylamino)-imidazo[1,2-a]pyrazin5-yl]-5,6-dihydro-furo[2,3-c]pyrrol-4-one]",IC50,MAPKAPK5,101 to 500 nM
same,EC50,MMP1 expression by SFs,> 1000 nM
NC(=O)c1ccc(-c2cnc(Nc3cccnc3)c3nccn23)cc1 [Compound 96],IC50,MAPKAPK5,> 1000 nM
same,EC50,MMP1 expression by SFs,> 1000 nM
NC(=O)c1ccc(-c2cnc(Nc3cccc(N4CCOCC4)c3)c3nccn23)cc1 [Compound 172],IC50,MAPKAPK5,> 1000 nM
same,EC50,MMP1 expression by SFs,> 1000 nM
CCN(CC)CCNC(=O)c1ccc(Nc2ncc(-c3cn[nH]c3)n3ccnc23)c(C)c1 [Compound 58],IC50,MAPKAPK5,> 1000 nM
same,EC50,MMP1 expression by SFs,> 1000 nM
CCN(CC)CCNC(=O)c1ccc(Nc2ncc(-c3cncc4ccccc34)n3ccnc23)cc1 [Compound 77],IC50,MAPKAPK5,> 1000 nM
same,EC50,MMP1 expression by SFs,> 1000 nM
O=C(O)c1cccc(Nc2ncc(-c3cn[nH]c3)n3ccnc23)c1 [Compound 51],IC50,MAPKAPK5,> 1000 nM
same,EC50,MMP1 expression by SFs,> 1000 nM
O=C(O)c1ccc(-c2cnc(Nc3ccc(N4CCOCC4)cc3)c3nccn23)cc1F [Compound 39],IC50,MAPKAPK5,> 1000 nM
same,EC50,MMP1 expression by SFs,> 1000 nM
CCN(CC)CCNC(=O)c1ccc(Nc2ncc(-c3nn[nH]n3)n3ccnc23)cc1 [Compound 68],IC50,MAPKAPK5,> 1000 nM
same,EC50,MMP1 expression by SFs,> 1000 nM
Cn1nnc(-c2ccc(Nc3ncc(-c4ccc(C(N)=O)cc4)n4ccnc34)cc2)n1 [Compound 170],IC50,MAPKAPK5,> 1000 nM
same,EC50,MMP1 expression by SFs,101 to 500 nM
N#Cc1ccc(Nc2ncc(-c3cn[nH]c3)n3ccnc23)cc1Cl [Compound 34],IC50,MAPKAPK5,> 1000 nM
same,EC50,MMP1 expression by SFs,501 to 1000 nM
O=C(O)c1ccc(-c2cnc(Nc3ccc(C(=O)NCc4cccnc4)cc3)c3nccn23)cc1 [Compound 44],IC50,MAPKAPK5,> 1000 nM
same,EC50,MMP1 expression by SFs,> 1000 nM
NC(=O)c1nc(-c2cnc(Nc3ccc(N4CCOCC4)cc3)c3nccn23)cs1 [Compound 164],IC50,MAPKAPK5,> 1000 nM
same,EC50,MMP1 expression by SFs,> 1000 nM
CS(=O)(=O)Nc1ccc(Nc2ncc(-c3cn[nH]c3)n3ccnc23)cc1 [Compound 30],IC50,MAPKAPK5,501 to 1000 nM
same,EC50,MMP1 expression by SFs,> 1000 nM
NS(=O)(=O)c1ccc(-c2cnc(Nc3ccc(N4CCOCC4)cc3)c3nccn23)cc1 [Compound 29],IC50,MAPKAPK5,> 1000 nM
same,EC50,MMP1 expression by SFs,> 1000 nM
c1cn2c(-c3cn[nH]n3)cnc(Nc3ccc(N4CCOCC4)cc3)c2n1 [Compound 67],IC50,MAPKAPK5,> 1000 nM
same,EC50,MMP1 expression by SFs,> 1000 nM
"CN1CCN(c2ccc(Nc3ncc(-c4ccnc(N)c4)n4ccnc34)cc2)CC1 [Compound 132, [5-(2-Amino-pyridin-4-yl)-imidazo[1,2-a]pyrazin-8-yl]-[4-(4-methyl-piperazin-1-yl)-phenyl]-amine]",IC50,MAPKAPK5,> 1000 nM
same,EC50,MMP1 expression by SFs,> 1000 nM
"NC(=O)c1ccc(-c2cnc(Nc3ccc(-n4cc(-c5ccccn5)nn4)cc3)c3nccn23)cc1 [Compound 154, 4-{8-[4-(4-Pyridin-2-yl-[1,2,3]triazol-1-yl)-phenylamino]-imidazo[1,2-a]pyrazin-5-yl}-benzamide]",IC50,MAPKAPK5,> 1000 nM
same,EC50,MMP1 expression by SFs,1 to 100 nM
CCN(CC)CCNC(=O)c1ccc(Nc2ncc(-c3ccnn3C)n3ccnc23)cc1 [Compound 88],IC50,MAPKAPK5,> 1000 nM
same,EC50,MMP1 expression by SFs,> 1000 nM
CCN(CC)CCNC(=O)c1ccc(Nc2ncc(-c3ccncc3)n3ccnc23)cc1 [Compound 86],IC50,MAPKAPK5,> 1000 nM
same,EC50,MMP1 expression by SFs,> 1000 nM
CC(C)(C)OC(=O)c1ccc(Nc2ncc(-c3cn[nH]c3)n3ccnc23)cc1 [Compound 22],IC50,MAPKAPK5,> 1000 nM
same,EC50,MMP1 expression by SFs,> 1000 nM
O[C@H]1CC[C@H](Nc2ncc(-c3cn[nH]c3)n3ccnc23)CC1 [Compound 25],IC50,MAPKAPK5,> 1000 nM
same,EC50,MMP1 expression by SFs,> 1000 nM
"CCc1cnc2c(Nc3ccc(N4CCOCC4)cc3)ncc(-c3ccc(C(N)=O)cc3)n12 [Compound 162, 4-[3-Ethyl-8-(4-morpholin-4-ylphenylamino)-imidazo[1,2-a]pyrazin-5-yl]benzamide]",IC50,MAPKAPK5,> 1000 nM
same,EC50,MMP1 expression by SFs,501 to 1000 nM
CCN(CC)c1ccc(Nc2ncc(-c3cn[nH]c3)n3ccnc23)cc1 [Compound 9],IC50,MAPKAPK5,501 to 1000 nM
same,EC50,MMP1 expression by SFs,> 1000 nM
Cc1cnc2c(Nc3ccc(N4CCOCC4)cc3)ncc(-c3cc[nH]c(=O)c3)n12 [Compound 135],IC50,MAPKAPK5,> 1000 nM
same,EC50,MMP1 expression by SFs,> 1000 nM
"Cc1cnc2c(Nc3ccc(N4CCOCC4)cc3)ncc(-c3cn[nH]c3)n12 [Compound 131, [3-Methyl-5-(1H-pyrazol-4-yl)imidazo[1,2-a]pyrazin-8-yl]-(4-morpholin-4-yl-phenyl)amine]",IC50,MAPKAPK5,> 1000 nM
same,EC50,MMP1 expression by SFs,> 1000 nM
"O=C(NCc1cccnc1)c1ccc(Nc2ncc(-c3cc[nH]c(=O)c3)n3ccnc23)cc1 [Compound 108, 4-[5-(2-Oxo-1,2-dihydropyridin-4-yl)imidazo[1,2-a]pyrazin-8-ylamino]-N-pyridin-3-ylmethyl benzamide]",IC50,MAPKAPK5,501 to 1000 nM
same,EC50,MMP1 expression by SFs,101 to 500 nM
CCN(CCO)c1ccc(Nc2ncc(-c3ccc(N)cc3)n3ccnc23)cc1 [Compound 6],IC50,MAPKAPK5,> 1000 nM
same,EC50,MMP1 expression by SFs,> 1000 nM
NCc1cccc(CNC(=O)c2ccc(Nc3ncc(-c4cn[nH]c4)n4ccnc34)cc2)c1 [Compound 95],IC50,MAPKAPK5,> 1000 nM
same,EC50,MMP1 expression by SFs,101 to 500 nM

# From patent US8178530B2, “Imidazolopyrazine compounds useful for the treatment of degenerative and inflammatory diseases” (Janssen Pharmaceutica NV, priority 2006, dated 2012)
